Laboratory results from patent publication US7820630B2, “Substituted indole-O-glucosides” (Janssen Pharmaceutica NV, priority 2003, dated 2010).

Tests used:
human SGLT2 = target: T1, human SGLT2 (Homo sapiens, UniProt P31639); experiment: Cell-based assay for sodium-dependent glucose transport (14C-AMG uptake), CHOK-SGLT2; conditions: CHO-K1 cells stably expressing human SGLT2; for IC50: Na-dependent 14C-AMG uptake
T1 construct: expressed in transfected cells
T1 sequence (P31639 1-672): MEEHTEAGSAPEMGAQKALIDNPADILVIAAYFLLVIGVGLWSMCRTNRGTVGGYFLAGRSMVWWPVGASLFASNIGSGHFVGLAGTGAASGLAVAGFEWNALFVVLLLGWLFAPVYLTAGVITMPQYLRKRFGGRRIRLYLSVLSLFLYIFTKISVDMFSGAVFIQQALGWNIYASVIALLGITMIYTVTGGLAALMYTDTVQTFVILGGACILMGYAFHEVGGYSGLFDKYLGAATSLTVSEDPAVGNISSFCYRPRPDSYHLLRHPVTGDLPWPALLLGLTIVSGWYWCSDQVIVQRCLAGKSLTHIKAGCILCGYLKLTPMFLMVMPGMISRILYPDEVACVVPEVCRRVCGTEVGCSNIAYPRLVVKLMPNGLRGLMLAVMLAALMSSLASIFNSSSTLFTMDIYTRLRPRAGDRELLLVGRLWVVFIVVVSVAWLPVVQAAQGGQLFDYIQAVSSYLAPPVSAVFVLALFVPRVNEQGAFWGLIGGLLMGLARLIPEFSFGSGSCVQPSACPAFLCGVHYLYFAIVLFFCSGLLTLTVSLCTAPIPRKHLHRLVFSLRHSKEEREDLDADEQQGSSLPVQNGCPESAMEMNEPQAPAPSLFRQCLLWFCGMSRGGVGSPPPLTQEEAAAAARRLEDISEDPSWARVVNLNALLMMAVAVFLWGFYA
Description: (§1) Cloning of the human SGLT1 and human SGLT2 cDNAs and construction of the mammalian expression vector: The human SGLT1 cDNA (Genbank M24847) was cloned from human small intestine. Human SGLT2 cDNA (Genbank M95549) was cloned from human kidney. Both full cDNAs were subcloned into pcDNA and sequenced to verify the integrity of the construct.
(§2) Generation of CHO-K1 cells stably expressing human SGLT1 or human SGLT2: Transfection of CHO-K1 cells was performed using DMRIE-C reagent (Life Technologies, Gaithersburg, Md.). Transfectants were then selected in the presence of the antibiotic G418 (Gibco-BRL, Grand Island, N.Y.) at 400 μg/ml. Individual clones were then characterized using the functional assay described below.
(§3) Cell-based assay for sodium-dependent glucose transport: Cell lines stably expressing human SGLT1 or SGLT2 were then used for functional analysis of Na+-dependent glucose uptake. Briefly, cells were plated at a density of 65,000 cells per well in a 96-well plate and allowed to grow for 48 hours. Cells were subsequently washed one time with Assay Buffer (50 mM HEPES pH […], 5 mM KCl, 1 mM MgCl2, 1 mM CaCl2 and 137 mM NaCl) and treated with compound in the absence or presence of NaCl for 15 minutes. Cells were then labeled with ^14C-α-methylglucopyranoside (AMG, Sigma, St. Louis, Mo.), a non-metabolizable glucose analog specific for sodium-dependent glucose transporters as previously described (Peng, H. and Lever J. E. Post-transcriptional regulation of Na^+/glucose cotransporter (SGLT1) gene expression in LLC-PK1 cells. J Biol Chem 1995; 270:20536-20542.). After 2 hours the labeled cells were washed three times with ice-cold PBS. After aspiration, cells were solubilized using Microscint 20 (Packard, Meriden, Conn.) and Na-dependent ^14C-AMG uptake was quantified by measuring radioactivity. Plates were counted in a TopCount (Packard, Meriden, Conn.). Results are reported as the % inhibition or IC50 value from a representative experiment. Variability for the functional assay was typically within 20%.

human SGLT1 = target: T2, human SGLT1 (Homo sapiens, UniProt P13866); experiment: Cell-based assay for sodium-dependent glucose transport (14C-AMG uptake), CHOK-SGLT1; conditions: CHO-K1 cells stably expressing human SGLT1; for IC50: Na-dependent 14C-AMG uptake; for inhibition at 10 µM: 10 μM compound, read-out: CHOK-SGLT1 % Inh. @ 10 μM
T2 construct: expressed in transfected cells
T2 sequence (P13866 1-664): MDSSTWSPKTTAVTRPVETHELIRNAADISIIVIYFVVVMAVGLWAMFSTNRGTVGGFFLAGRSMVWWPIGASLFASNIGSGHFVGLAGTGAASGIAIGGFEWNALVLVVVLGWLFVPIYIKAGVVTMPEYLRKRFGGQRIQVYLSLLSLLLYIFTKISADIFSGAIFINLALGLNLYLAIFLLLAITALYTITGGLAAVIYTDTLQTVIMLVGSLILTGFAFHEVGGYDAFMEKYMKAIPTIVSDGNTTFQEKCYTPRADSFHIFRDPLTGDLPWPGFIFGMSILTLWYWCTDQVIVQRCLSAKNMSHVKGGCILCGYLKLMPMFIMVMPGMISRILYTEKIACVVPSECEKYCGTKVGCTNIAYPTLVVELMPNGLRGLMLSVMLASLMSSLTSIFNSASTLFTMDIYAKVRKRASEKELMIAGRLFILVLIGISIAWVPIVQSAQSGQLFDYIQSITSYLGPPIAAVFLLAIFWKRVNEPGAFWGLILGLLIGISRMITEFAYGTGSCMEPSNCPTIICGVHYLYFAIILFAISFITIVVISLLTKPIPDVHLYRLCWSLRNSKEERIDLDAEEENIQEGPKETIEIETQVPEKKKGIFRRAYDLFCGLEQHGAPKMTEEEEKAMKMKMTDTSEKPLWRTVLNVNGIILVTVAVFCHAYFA
Description: as §1, §2, §3

SMILES	IC50 (human SGLT2)	IC50 (human SGLT1)	other results
CCOc1ccc(CCc2c[nH]c3cccc(O[C@@H]4O[C@H](CO)[C@@H](O)[C@H](O)[C@H]4O)c23)cc1 [Example 8, 2-{3-[2-(4-Ethoxy-phenyl)-ethyl]-1H-indol-4-yloxy}-β-D-glucopyranoside]	0.183 µM	1.34 µM	–
CCc1ccc(CCc2c[nH]c3cccc(O[C@@H]4O[C@H](CO)[C@@H](O)[C@H](O)[C@H]4O)c23)cc1 [Example 9, 2-{3-[2-(4-Ethyl-phenyl)-ethyl]-1H-indol-4-yloxy}-β-D-glucopyranoside]	–	–	inhibition at 1 µM (human SGLT2; 1 μM compound, read-out: CHOK-SGLT2 % Inh. @ 1 μM): 50%; inhibition at 10 µM (human SGLT1): 46%
COc1ccc(CCc2c[nH]c3cc(C)cc(O[C@@H]4O[C@H](CO)[C@@H](O)[C@H](O)[C@H]4O)c23)cc1 [Example 10, 2-{3-[2-(4-Methoxy-phenyl)-ethyl]-6-methyl-1H-indol-4-yloxy}-β-D-glucopyranoside]	0.376 µM	2.73 µM	–
CCc1ccc(Cc2c[nH]c3cccc(O[C@@H]4O[C@H](COC(=O)OC)[C@@H](O)[C@H](O)[C@H]4O)c23)cc1 [Example 12, 2-[3-(4-Ethyl-benzyl)-1H-indol-4-yloxy]-6-O-methoxycarbonyl-β-D-glucopyranoside]	0.66 µM	–	–
CCOC(=O)OC[C@H]1O[C@@H](Oc2cccc3[nH]cc(Cc4ccc(CC)cc4)c23)[C@H](O)[C@@H](O)[C@@H]1O [Example 13, 2-[3-(4-Ethyl-benzyl)-1H-indol-4-yloxy]-6-O-ethoxycarbonyl-β-D-glucopyranoside]	0.65 µM	–	–
CCCCCC(=O)OC[C@H]1O[C@@H](Oc2cccc3[nH]cc(Cc4ccc(CC)cc4)c23)[C@H](O)[C@@H](O)[C@@H]1O [Example 14, 2-[3-(4-Ethyl-benzyl)-1H-indol-4-yloxy]-6-O-hexanoyl-β-D-glucopyranoside]	0.206 µM	–	inhibition at 10 µM (human SGLT1): 71%
OC[C@H]1O[C@@H](Oc2cccc3[nH]cc(Cc4ccc(Oc5ccccc5)cc4)c23)[C@H](O)[C@@H](O)[C@@H]1O [Example 26, 2-[3-(4-Phenoxy-benzyl)-1H-indol-4-yloxy]-β-D-glucopyranoside]	0.42 µM	–	–
CCc1ccc(Cc2cn(C(C)C)c3cccc(O[C@@H]4O[C@H](CO)[C@@H](O)[C@H](O)[C@H]4O)c23)cc1 [Example 31, 2-[3-(4-Ethyl-benzyl)-1-isopropyl-1H-indol-4-yloxy]-β-D-glucopyranoside]	5.11 µM	–	–
COc1ccc(-c2c[nH]c3cccc(O[C@@H]4O[C@H](CO)[C@@H](O)[C@H](O)[C@H]4O)c23)cc1 [Example 33, 2-[3-(4-Methoxy-phenyl)-1H-indol-4-yloxy]-β-D-glucopyranoside]	–	–	inhibition at 10 µM (human SGLT2; 10 μM compound, read-out: CHOK-SGLT2 % Inh. @ 10 μM): 37%

Continued by falling IC50 (human SGLT2), values first:

IC50 (human SGLT2)	IC50 (human SGLT1)	SMILES	other results
0.158 µM	1.36 µM	CC(=O)OC[C@H]1O[C@@H](Oc2cccc3[nH]cc(CCc4ccc5c(c4)CCO5)c23)[C@H](O)[C@@H](O)[C@@H]1O [Example 2, 2-{3-[2-(2,3-Dihydro-benzofuran-5-yl)-ethyl]-1H-indol-4-yloxy}-6-O-acetyl β-D-glucopyranoside]	–
0.149 µM	–	OC[C@H]1O[C@@H](Oc2cccc3[nH]cc(CCc4ccc5ccccc5c4)c23)[C@H](O)[C@@H](O)[C@@H]1O [Example 6, 2-[3-(2-Naphthalen-2-yl-ethyl)-1H-indol-4-yloxy]-β-D-glucopyranoside]	–
0.146 µM	3.38 µM	OC[C@H]1O[C@@H](Oc2cccc3[nH]cc(CCc4ccc5c(c4)OCCO5)c23)[C@H](O)[C@@H](O)[C@@H]1O [Example 5, 2-{3-[2-(2,3-Dihydro-benzo[1,4]dioxin-6-yl)-ethyl]-1H-indol-4-yloxy}-β-D-glucopyranoside]	–
0.142 µM	0.56 µM	COc1ccc(CCc2c[nH]c3cccc(O[C@@H]4O[C@H](CO)[C@@H](O)[C@H](O)[C@H]4O)c23)cc1 [Example 7, 2-{3-[2-(4-Methoxy-phenyl)-ethyl]-1H-indol-4-yloxy}-β-D-glucopyranoside]	–
0.101 µM	–	OC[C@H]1O[C@@H](Oc2cccc3[nH]cc(Cc4ccc(-c5ccccc5)cc4)c23)[C@H](O)[C@@H](O)[C@@H]1O [Example 19, 2-(3-Biphenyl-4-ylmethyl-1H-indol-4-yloxy)-β-D-glucopyranoside]	inhibition at 10 µM (human SGLT1): 63%
0.098 µM	0.823 µM	OC[C@H]1O[C@@H](Oc2cccc3[nH]cc(CCc4ccc5c(c4)OCO5)c23)[C@H](O)[C@@H](O)[C@@H]1O [Example 4, 2-[3-(2-Benzo[1,3]dioxol-5-yl-ethyl)-1H-indol-4-yloxy] β-D-glucopyranoside]	–
0.088 µM	–	CC(C)c1ccc(Cc2c[nH]c3cccc(O[C@@H]4O[C@H](CO)[C@@H](O)[C@H](O)[C@H]4O)c23)cc1 [Example 18, 2-[3-(4-isopropyl-benzyl)-1H-indol-4-yloxy]-β-D-glucopyranoside]	inhibition at 10 µM (human SGLT1): 49%
0.067 µM	–	Cc1ccc(Cc2c[nH]c3cccc(O[C@@H]4O[C@H](CO)[C@@H](O)[C@H](O)[C@H]4O)c23)cc1F [Example 16, 2-[3-(3-Fluoro-4-methyl-benzyl)-1H-indol-4-yloxy]-β-D-glucopyranoside]	inhibition at 3 µM (human SGLT1; 3 μM compound, read-out: CHOK-SGLT1 % Inh. @ 3 μM): 42%
0.062 µM	0.195 µM	Cn1cc(CCc2ccc3c(c2)CCO3)c2c(O[C@@H]3O[C@H](CO)[C@@H](O)[C@H](O)[C@H]3O)cccc21 [Example 3, 2-{3-[2-(2,3-Dihydro-benzofuran-5-yl)-ethyl]-1-methyl-1H-indol-4-yloxy} β-D-glucopyranoside]	–
0.053 µM	3.88 µM	Cc1ccc(Cc2c[nH]c3cccc(O[C@@H]4O[C@H](CO)[C@@H](O)[C@H](O)[C@H]4O)c23)cc1 [Example 15, 2-[3-(4-Methyl-benzyl)-1H-indol-4-yloxy]-β-D-glucopyranoside]	–
0.049 µM	–	CCCc1ccc(Cc2c[nH]c3cccc(O[C@@H]4O[C@H](CO)[C@@H](O)[C@H](O)[C@H]4O)c23)cc1 [Example 17, 2-[3-(4-propyl-benzyl)-1H-indol-4-yloxy]-β-D-glucopyranoside]	–
0.024 µM	1.81 µM	CCc1ccc(Cc2c[nH]c3cccc(O[C@@H]4O[C@H](CO)[C@@H](O)[C@H](O)[C@H]4O)c23)cc1 [Example 11, 2-[3-(4-Ethyl-benzyl)-1H-indol-4-yloxy]-β-D-glucopyranoside]	–
0.02 µM	0.148 µM	OC[C@H]1O[C@@H](Oc2cccc3[nH]cc(CCc4ccc5c(c4)CCO5)c23)[C@H](O)[C@@H](O)[C@@H]1O [Example 1, 2-{3-[2-(2,3-Dihydro-benzofuran-5-yl)-ethyl]-1H-indol-4-yloxy} β-D-glucopyranoside]	–
